Our source for the relative viability values is the supplement of paper PMC10307832.

Common to all, as to test: relative viability (nuclei count vs DMSO), 5 days (fraction); higher = more cells survive
Compound in the assay “Cediranib + Phenformin”: COc1cc2c(Oc3ccc4[nH]c(C)cc4c3F)ncnc2cc1OCCCN1CCCC1 [Cediranib] + N=C(N)NC(=N)NCCc1ccccc1 [Phenformin] (partner 250 µM)
Put shortly: (§1)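 A single step with final 0.05% Triton X-100, 1% formaldehyde and 1 ug/ml Hoechst fixed the cells and stained nuclei 5 days after treatment. Lung cancer cell lines in 1536-well plates had been treated by pin tool the day after seeding with one drug alone or a fixed anchor-drug dose plus five library-drug doses (not always all listed) in √10 steps, and nuclei were counted on 4× images. Relative viability is the ratio of nuclei in treated wells to nuclei in vehicle wells, taken as the median of duplicate plates.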

Compound in the assay “Decitabine + Bortezomib”: Nc1ncn([C@H]2C[C@H](O)[C@@H](CO)O2)c(=O)n1 [Decitabine] + CC(C)C[C@H](NC(=O)[C@H](Cc1ccccc1)NC(=O)c1cnccn1)B(O)O [Bortezomib] (partner 0.002 µM)
Put shortly:
as §1

Compound in the assay “Decitabine + Luminespib”: Nc1ncn([C@H]2C[C@H](O)[C@@H](CO)O2)c(=O)n1 [Decitabine] + CCNC(=O)c1noc(-c2cc(C(C)C)c(O)cc2O)c1-c1ccc(CN2CCOCC2)cc1 [Luminespib] (partner 0.01 µM)
Put shortly: as §1

Compound in assay [1]: O=C(C[C@H]1NCCC[C@@H]1O)Cn1cnc2cc(Br)c(Cl)cc2c1=O (racemic) [Halofuginone] + Nc1ncn([C@H]2C[C@H](O)[C@@H](CO)O2)c(=O)n1 [Decitabine] (partner 2 µM)
In a few lines: as §1

On to NCI-H3122, for which the relative viability with Cediranib + Phenformin (first compound 0.04 µM) was 0.374; in the assay with Cediranib + Phenformin (first compound 0.4 µM) it was 0.364; with Cediranib + Phenformin (first compound 1.265 µM), 0.36; in the assay with Cediranib + Phenformin (first compound 4 µM) it was 0.363; with Decitabine + Bortezomib (first compound 0.04 µM) it was 0.973; in the assay with Decitabine + Bortezomib (first compound 0.1265 µM) it was 0.987. Also, the relative viability came to 0.968 with Decitabine + Bortezomib (first compound 0.4 µM); 0.782 in the assay with Decitabine + Bortezomib (first compound 1.265 µM); 0.725 with Decitabine + Bortezomib (first compound 4 µM); 0.0814 with Decitabine + Luminespib (first compound 0.04 µM); 0.0807 with Decitabine + Luminespib (first compound 0.1265 µM); 0.0785 with Decitabine + Luminespib (first compound 0.4 µM). The relative viability with Decitabine + Luminespib (first compound 1.265 µM) was 0.0889; with Decitabine + Luminespib (first compound 4 µM), 0.0802; in assay [1] (first compound 0.001 µM), 0.438; in assay [1] (first compound 0.003162 µM), 0.442; in assay [1] (first compound 0.01 µM), 0.381; in assay [1] (first compound 0.03162 µM), 0.413. Moreover, the relative viability in assay [1] (first compound 0.1 µM) is 0.405.

For PC-3 [JPC-3], the relative viability came to 0.462 with Cediranib + Phenformin (first compound 0.04 µM); 0.498 with Cediranib + Phenformin (first compound 0.1265 µM); 0.489 with Cediranib + Phenformin (first compound 0.4 µM); 0.472 with Cediranib + Phenformin (first compound 1.265 µM); 0.468 in the assay with Cediranib + Phenformin (first compound 4 µM); 0.6 with Decitabine + Bortezomib (first compound 0.1265 µM). In addition, the relative viability with Decitabine + Bortezomib (first compound 0.4 µM) was 0.458; with Decitabine + Bortezomib (first compound 1.265 µM), 0.462; with Decitabine + Bortezomib (first compound 4 µM), 0.389; with Decitabine + Luminespib (first compound 0.04 µM), 0.43; with Decitabine + Luminespib (first compound 0.1265 µM), 0.708; with Decitabine + Luminespib (first compound 0.4 µM), 0.454. Besides, the relative viability is 0.408 with Decitabine + Luminespib (first compound 1.265 µM); 0.488 in the assay with Decitabine + Luminespib (first compound 4 µM); 0.77 in assay [1] (first compound 0.001 µM); 0.832 in assay [1] (first compound 0.003162 µM); 0.861 in assay [1] (first compound 0.01 µM); 0.923 in assay [1] (first compound 0.03162 µM). In assay [1] (first compound 0.1 µM), the relative viability is 0.781.

For the cell line PC-14, the relative viability was found to be 0.593 in the assay with Cediranib + Phenformin (first compound 0.04 µM); 0.756 with Cediranib + Phenformin (first compound 0.1265 µM); 0.508 with Cediranib + Phenformin (first compound 0.4 µM); 0.517 in the assay with Cediranib + Phenformin (first compound 1.265 µM); 0.567 in the assay with Cediranib + Phenformin (first compound 4 µM); 0.35 with Decitabine + Bortezomib (first compound 0.04 µM). For the same cell line, the relative viability with Decitabine + Bortezomib (first compound 0.1265 µM) amounted to 0.507; with Decitabine + Bortezomib (first compound 0.4 µM), 0.369; with Decitabine + Bortezomib (first compound 1.265 µM) it was 0.221; with Decitabine + Bortezomib (first compound 4 µM), 0.168; with Decitabine + Luminespib (first compound 0.04 µM), 0.145; with Decitabine + Luminespib (first compound 0.1265 µM) it was 0.227. The relative viability stood at 0.173 with Decitabine + Luminespib (first compound 0.4 µM); 0.168 in the assay with Decitabine + Luminespib (first compound 1.265 µM); 0.131 with Decitabine + Luminespib (first compound 4 µM); 0.231 in assay [1] (first compound 0.001 µM); 0.273 in assay [1] (first compound 0.003162 µM); 0.237 in assay [1] (first compound 0.01 µM). For the same cell line, the relative viability in assay [1] (first compound 0.03162 µM) is 0.259; in assay [1] (first compound 0.1 µM), 0.0807.

Take RERF-LC-KJ: the relative viability came out at 0.42 with Cediranib + Phenformin (first compound 0.04 µM); 0.442 in the assay with Cediranib + Phenformin (first compound 0.1265 µM); 0.386 with Cediranib + Phenformin (first compound 0.4 µM); 0.476 with Cediranib + Phenformin (first compound 1.265 µM); 0.426 with Cediranib + Phenformin (first compound 4 µM); 1.05 with Decitabine + Bortezomib (first compound 0.04 µM). Also, the relative viability was determined as 0.931 with Decitabine + Bortezomib (first compound 0.1265 µM); 0.525 with Decitabine + Bortezomib (first compound 0.4 µM); 0.824 with Decitabine + Bortezomib (first compound 1.265 µM); 0.779 in the assay with Decitabine + Bortezomib (first compound 4 µM); 1.18 with Decitabine + Luminespib (first compound 0.04 µM); 1.01 with Decitabine + Luminespib (first compound 0.1265 µM). Also, the relative viability was 0.582 with Decitabine + Luminespib (first compound 1.265 µM); 0.685 in the assay with Decitabine + Luminespib (first compound 4 µM); 0.842 in assay [1] (first compound 0.001 µM); 0.807 in assay [1] (first compound 0.003162 µM); 0.664 in assay [1] (first compound 0.01 µM); 0.753 in assay [1] (first compound 0.03162 µM). Moreover, the relative viability in assay [1] (first compound 0.1 µM) was 0.563.

Turning to SK-LU-1, the relative viability with Cediranib + Phenformin (first compound 0.04 µM) turned out to be 0.541; in the assay with Cediranib + Phenformin (first compound 0.1265 µM), 0.708; with Cediranib + Phenformin (first compound 0.4 µM), 0.497; with Cediranib + Phenformin (first compound 1.265 µM), 0.456; with Cediranib + Phenformin (first compound 4 µM), 0.439; with Decitabine + Bortezomib (first compound 0.04 µM) it was 0.781. The relative viability with Decitabine + Bortezomib (first compound 0.1265 µM) was determined as 0.849; with Decitabine + Bortezomib (first compound 0.4 µM), 0.251; in the assay with Decitabine + Bortezomib (first compound 1.265 µM), 0.516; in the assay with Decitabine + Bortezomib (first compound 4 µM) it was 0.503; with Decitabine + Luminespib (first compound 0.04 µM) it was 0.18; in the assay with Decitabine + Luminespib (first compound 0.1265 µM), 0.212. Further, the relative viability in the assay with Decitabine + Luminespib (first compound 0.4 µM) came out at 0.196; in the assay with Decitabine + Luminespib (first compound 1.265 µM), 0.204; with Decitabine + Luminespib (first compound 4 µM), 0.208; in assay [1] (first compound 0.001 µM), 0.705; in assay [1] (first compound 0.003162 µM), 0.599; in assay [1] (first compound 0.01 µM), 0.714. For the same cell line, the results for the relative viability in assay [1] (first compound 0.03162 µM) and in assay [1] (first compound 0.1 µM) were 0.606 and 0.422, respectively.

SW 1573: the relative viability is 0.35 in the assay with Cediranib + Phenformin (first compound 0.04 µM); 0.336 with Cediranib + Phenformin (first compound 0.1265 µM); 0.329 with Cediranib + Phenformin (first compound 0.4 µM); 0.394 with Cediranib + Phenformin (first compound 1.265 µM); 0.416 with Cediranib + Phenformin (first compound 4 µM); 0.969 with Decitabine + Bortezomib (first compound 0.04 µM). The relative viability was 0.895 in the assay with Decitabine + Bortezomib (first compound 0.1265 µM); 0.99 with Decitabine + Bortezomib (first compound 0.4 µM); 0.575 with Decitabine + Bortezomib (first compound 1.265 µM); 0.382 with Decitabine + Bortezomib (first compound 4 µM); 0.135 in the assay with Decitabine + Luminespib (first compound 0.04 µM); 0.172 with Decitabine + Luminespib (first compound 0.1265 µM). Further, the relative viability turned out to be 0.201 with Decitabine + Luminespib (first compound 0.4 µM); 0.143 with Decitabine + Luminespib (first compound 1.265 µM); 0.151 with Decitabine + Luminespib (first compound 4 µM); 0.627 in assay [1] (first compound 0.001 µM); 0.552 in assay [1] (first compound 0.003162 µM); 0.491 in assay [1] (first compound 0.01 µM). The relative viability was 0.282 in assay [1] (first compound 0.03162 µM) and 0.135 in assay [1] (first compound 0.1 µM).
